Results from US20230255873A1, “COSMETIC OR DERMATOLOGICAL PEPTIDE-BASED TREATMENT OF THE SKIN AND ITS INTEGUMENTS” (Sederma, priority 2020, published 2023).
The star is where a group is joined. Palmitoyl = CCCCCCCCCCCCCCCC(=O)*

Legend:
P. acnes [1] = experiment: Biofilm stability of P. acnes (peptide added 24 hours after start of culture); type: cell-based, Propionibacterium acnes; settings: peptide added 24 hours after the start of the culture
Protocol: The effect of the peptide on the biofilm stability was also evaluated, the peptide being only added 24 hours after the start of the P. acnes culture.

equivalent skins = experiment: Thickness of the stratum corneum on equivalent skins; type: cell-based, human; settings: 2 days of contact, vs control
Protocol: Equivalent skins were prepared by first manufacturing an equivalent dermis, then once it contracted, human keratinocytes were seeded on the surface of the gel. After 14 days, equivalent skins were obtained, on which carbopol gels containing the peptide of the invention or the solvent alone were applied to their surface. After 2 days of contact, the skins were frozen to be sectioned into thin 7 μm slides and then marked in order to visualize the macrostructure of the layers. A quantification of the thickness of the stratum corneum was carried out on photos using an image software.

[2] = tested on: P. acnes (strain ATCC6919); experiment: Adhesion of P. acnes to a surface; type: cell-based, Propionibacterium acnes; settings: 48 hours and 72 hours, two concentrations tested
Text: […] At the end of the contact plus more or less the peptide, the quantity of isolated cells, not attached, was estimated by an OD at 600 nm.

P. acnes [3] = experiment: P. acnes growth curve (time to OD600 nm = 0.5); type: cell-based, Propionibacterium acnes; settings: for Time (in hour) to reach OD600 nm = 0.5: vehicle 42-44 h
Protocol: 1—P. acnes growth curve (same protocol as described above at point 1.4)
P. acnes is thawed and grown over 3 days in M20 media. Then, optical density at 600 nm (OD600) is measured and 2×10^6 CFU*/mL are plated in well plates. P. acnes is then treated with 6 ppm, 9 ppm and 12 ppm of peptides. To follow bacterial cell multiplication, OD600 is measured regularly for about 1 week. […] Statistical evaluations are performed on results using a Student t test. Two independent experiments are performed (N=2).

[4] = tested on: Normal Human Fibroblasts (NHF); experiment: Immuno-enzymatic tests on normal human fibroblasts (NHF) culture; type: cell-based; settings: 3 days
Protocol: 1.3—Immuno-Enzymatic Tests on Normal Human Fibroblasts (NHF) Culture Principle: Normal Human Fibroblasts (NHF) are cultured in 24-well plates for 24 hours in the proliferation medium until confluence. The cells are then brought into contact or not (control case) with the preferred peptide according to the invention for 3 days in a medium without serum. The culture media are collected and the concentrations of various elements of the dermis or the basement membrane (PIP (carboxy-terminal propeptide of procollagen type I), collagen I, collagen IV, fibronectin) are measured by ELISA assays. An estimate of cell viability is also carried out at the end of culture, in order to weight the data from the ELISA, using an assay with the Hoechst 33258 reagent (DNA intercalator). A study of variances and a Student t test for paired series were carried out to judge the significance of the results.

[5] = tested on: P. acnes (strain ATCC6919); experiment: Biofilm formation of P. acnes (crystal violet); type: cell-based, Propionibacterium acnes; settings: 3 days
Protocol: The adhesion of 10^6 CFU/mL of P. acnes (strain ATCC6919) to a surface for 72 hours in an appropriate medium was evaluated. At the end of the contact plus more or less the peptide, the quantity of isolated cells, not attached, was estimated by an OD at 600 nm. The biofilm and the bacteria still attached were labeled with crystal violet solution for 20 min. After rinsing, the quantity of crystal violet remaining on the biofilms was assayed, after extraction, also with a measurement of OD at 600 nm.

Propionibacterium acnes = Propionibacterium acnes growth inhibition test (time to OD of 1); type: cell-based; settings: control 26 hours
Protocol: 1.4—Propionibacterium acnes Growth Inhibition Test Principle: Suspensions of Propionibacterium acnes of equivalent density are cultured in a suitable medium in the presence (test case) or absence (control case) of the preferred peptide according to the invention, in anaerobic condition, at 37° C. Samples are taken at regular intervals to measure the OD at 600 nm, to follow the growth of the bacterial population over time. The growth curve of each culture can therefore be established.

P. acnes [6] = experiment: Persistent effect on P. acnes growth after removal of the peptide; type: cell-based, Propionibacterium acnes; settings: 48 hours of contact, then fresh medium without peptide
Protocol: This study was also carried out to follow the persistent effect of the peptide according to the invention on P. acnes, and to see if the inhibition can be quickly lifted in the absence of the peptide. The peptide was brought into contact with the cells from the start, as before. After 48 hours of contact and evaluation of the quantity of cells, the cells of all the cases were centrifuged and returned to a fresh medium without solvent or peptide, all the cases having the same quantity of cells. The growth was then assessed again.

palmitoyl-lysyl-threonyl-serine-lysyl-serine (Palmitoyl-KTSKS-OH; SMILES CCCCCCCCCCCCCCCC(=O)N[C@@H](CCCCN)C(=O)N[C@H](C(=O)N[C@@H](CO)C(=O)N[C@@H](CCCCN)C(=O)N[C@@H](CO)C(=O)O)[C@@H](C)O) [Pal-KTSKS]
Reduction of the biofilm formed at 72 hours vs control (biofilm stability) (P. acnes [1]; 6 ppm): 89%
Reduction of the biofilm formed at 72 hours vs control (biofilm stability) (P. acnes [1]; 12 ppm): 93%
Thickness of the stratum corneum, Variation (%) (equivalent skins; 8 ppm of peptide in carbopol gel): +150%; p < 0.01
Thickness of the stratum corneum, Variation (%) (equivalent skins; 10 ppm of peptide in carbopol gel): +143%; p < 0.05
Drop in adhesion of P. acnes [2]: more than 83%
Delay in P. acnes growth versus vehicle (P. acnes [3]; 6 ppm): +5 h
Time (in hour) to reach OD600 nm = 0.5 (P. acnes [3]; 6 ppm): 48.8 h
Delay in P. acnes growth versus vehicle (P. acnes [3]; 9 ppm): +11 h
Time (in hour) to reach OD600 nm = 0.5 (P. acnes [3]; 9 ppm): 55.0 h
Delay in P. acnes growth versus vehicle (P. acnes [3]; 12 ppm): +43 h
Time (in hour) to reach OD600 nm = 0.5 (P. acnes [3]; 12 ppm): 87.3 h
Collagen I Variation %/control ([4]; 8 ppm): +75%; p < 0.01
Collagen IV Variation %/control ([4]; 8 ppm): +18%; p < 0.01
Fibronectin Variation %/control ([4]; 8 ppm): +40%; p < 0.01
Terminal C peptide of pro-collagen I variation %/control ([4]; 8 ppm): +61%; p < 0.01
Collagen I Variation %/control ([4]; 10 ppm): +184%; p < 0.01
Collagen IV Variation %/control ([4]; 10 ppm): +98%; p < 0.01
Fibronectin Variation %/control ([4]; 10 ppm): +67%; p < 0.01
Terminal C peptide of pro-collagen I variation %/control ([4]; 10 ppm): +94%; p < 0.01
Formation of the biofilm by P. acnes, variation vs control ([5]; 6 ppm): −98%
Formation of the biofilm by P. acnes, variation vs control ([5]; 12 ppm): −99%
Growth of P. acnes: time required to reach an OD of 1 (Propionibacterium acnes; 6 ppm of peptide): 54 h
Growth of P. acnes: time required to reach an OD of 1 (Propionibacterium acnes; 9 ppm of peptide): 103 h
Growth of P. acnes: time required to reach an OD of 1 (Propionibacterium acnes; 12 ppm of peptide): 135 h
Persistent effect on P. acnes growth once the peptide is removed (P. acnes [6]): no persistent effect
